A short description of the data set: HPLC retention times (reverse phase) as a measure of hydrophilicity. It is filed as physicochemical. Particulars: reverse phase C18 3.5 μm 4.6×75 mm; 45° C.; flow 1.0 mL/min; isocratic 40:60 v/v H2O:MeOH; shorter retention times correspond to higher hydrophilicity. As for the experimental part:
HPLC Retention Times [min] for Compounds According to the Invention
HPLC Conditions: Waters's SYMMETRY® HPLC column system (C18 3.5 μm 4.6×75 mm); T: 45° C.; flow 1.0 mL/min; isocratic eluent conditions 40:60 v/v/H2O:MeOH. Injection volume: 100 μL.
Solvents used for eluent are of HPLC grade, water filtered through a Millipore apparatus; all solvents were filtered through a 0.45 μm Millipore filter and degassed by N2 stream prior use.
Since the analyses are carried in reverse phase, shorter retention times correspond to higher hydrophilicity.
For `CC(=O)[C@H]1CC[C@H]2[C@@H]3CC[C@H]4C[C@@H](O)CC[C@]4(C)[C@H]3CC[C@]12C` [3β-5α-pregnan-20-one, reference compound], the “retention time” value is recorded as 30.0 min. For the molecule `CC(=O)[C@H]1CC[C@H]2[C@@H]3CC[C@@H]4C[C@@H](O)CC[C@]4(C)[C@H]3CC[C@]12C` [3β-5β-pregnan-20-one, reference compound], the “retention time” value amounted to 24.4 min.

As to `C#C[C@@]1(O)CC[C@@]2(C)[C@@H](CC[C@@H]3[C@@H]2CC[C@]2(C)C(=O)CC[C@@H]32)C1` [UC 2021, 3β-ethynyl, 3α-hydroxyl, androstan-17-one], the “retention time” value is listed as 7.8 min.

Take `C#C[C@]1(O)C=C2CCC3C(CC[C@@]4(C)C3CC[C@@H]4C(C)=O)[C@@]2(C)CC1` (stereo partly drawn) [UC 2024, 3β-ethynyl, 3α-hydroxyl, Δ4-pregnen-20-one]: the “retention time” value amounted to 14.0 min. With `C#C[C@@]1(O)CC[C@@]2(C)C(CC[C@@H]3[C@@H]2CC[C@]2(C)/C(=N\O)CC[C@@H]32)C1` (stereo partly drawn) [UC 2025, 3β-ethynyl, 3α-hydroxyl, androstan-17-one oxime], the “retention time” value is 13.9 min. As for `C#C[C@@]1(O)CC[C@@]2(C)[C@@H](CC[C@@H]3[C@@H]2CC[C@]2(C)[C@@H](/C(C)=N/O)CC[C@@H]32)C1` [UC 2026, 3β-ethynyl, 3α-hydroxyl, 5α-pregnan-20-one oxime], the “retention time” value was found to be 16.9 min.

The record behind these values is US8853190B2, “Steroids having increased water solubility and resistance against metabolism, and methods for their production” (Umecrine AB, priority 2006, dated 2014).
